Reference: patent publication US20080026003A1, “Methods for inhibiting pain” (The General Hospital Corporation, priority 2000, published 2008)

Assays:
[1] = tested on: p38 and ERK; assay: MAP kinase phosphorylation in primary DRG neuron cultures; assay type: cell-based, rat; conditions: 10 ng/ml; 30 minutes
Procedure: To investigate the intracellular signaling pathway that leads to the increase in Cox-2 mRNA in the DRG neurons following treatment with IL-1β, the activation of the NFκ-B transcription factor and members of the MAP kinase family in primary DRG neurons was studied. […] Phosphorylated p38 and ERK were visualized by standard Western blot analysis and immunohistochemistry 30 minutes after administration of 10 ng/ml IL-1β to the culture medium (FIG. 12).
After CFA-induced inflammation, NGF is produced in the inflamed paw tissue and is retrogradely transported to the cell body of DRG neurons. NGF is critical for gene expression in DRG neurons and plays a major role in inflammatory pain (Lindsay et al., Nature 337: 362-364, 1989; and Woolf et al., Neuroscience 62:327-331, 1994). […] To determine whether NGF is required for the inflammation-induced activation of p38 and upregulation of VR1, NGF antiserum (i.p., 5 μl/g body weight, 84 mg/ml) was injected to neutralize endogenous NGF. […] Intrathecal injection of NGF (2 μg in 10 μl, twice a day for three days, Boeringer) increased both p-p38 levels and VR1 levels in DRG neurons. […] To test whether NGF acts via p38 to upregulate VR1, the p38 inhibitor SB203580 (1 μg) was co-administrated with NGF (twice a day for three days).

[2] = tested on: Cox-2 mRNA; assay: Cox-2 mRNA induction by IL-1β in primary DRG neuron cultures; assay type: cell-based, rat; conditions: 1 or 10 ng/ml
Procedure: (§1) To determine whether IL-1β induces central Cox-2, rats were subjected to intravenous or intrathecal administration of this cytokine, and Cox-2 mRNA levels in the lumbar spinal cord were assessed five hours later. […] IL-1β also induces Cox-2 expression in dorsal root ganglion neurons (“DRG”), which are primary sensory neurons, both in vivo after intrathecal IL-1β administration and in vitro in primary neuronal cultures. […] For this analysis, Cox-2 mRNA levels were monitored using an RNase protection assay, and protein expression was visualized by immunohistochemistry, as described herein (FIG. 10).
To measure the contribution of p38, ERK, and NFκ-B to IL-1β-mediated induction of Cox-2 mRNA and protein levels, specific inhibitors for each of these factors were used. p38 and ERK inhibitors each decreased the induction by IL-1β of Cox-2 mRNA in the primary DRG neuron cultures by 30% (FIG. 10).

[3] = tested on: Cox-2 mRNA; assay: Cox-2 mRNA in isolated spinal cord slice in vitro; assay type: cell-based, rat; conditions: 10 ng/ml; after three hours
Procedure: Two mechanisms may contribute to central Cox-2 induction in response to peripheral inflammation: 1) sensory inflow from nerve fibers innervating the inflamed hindpaw or 2) circulating pro-inflammatory cytokines. To determine whether primary sensory neuron activity increases central Cox-2, an isolated adult rat spinal cord slice preparation with an attached dorsal root was analyzed (FIG. 5A). To prepare this spinal cord slice, the lumbar spinal cord from an adult rat under urethane anesthesia was removed and immersed in cold Kreb's solution. A 700-μm-thick transverse slice with attached L4 dorsal root (15-20 mm) was prepared and perfused with Kreb's solution saturated with 95% O2 and 5% CO2 at 36-37° C. (Baba et al., J Neurosci 19:859, 1999). The L4 dorsal root was electrically stimulated for 30 minutes using a suction electrode at 20 μA (0.05 ms, 50 Hz) for Aβ-fibers, 100 μA (0.05 ms, 50 Hz) for […] 1000 μA (0.5 ms, 50 Hz) for C-fibers. The slices were perfused with Kreb's solution for two hours before electrical stimulation, and for three hours after stimulation.

[4] = tested on: Cox-2 mRNA; assay: Cox-2 mRNA in spinal cord and DRG after IL-1β administration in vivo; set-up: species or system rat; conditions: for upregulation of Cox-2 mRNA in the spinal cord: five hours later
Procedure: as §1

[5] = tested on: PGE2; assay: Central PGE2 levels after intrathecal IL-1β; assay type: in vivo, rat; conditions: intrathecal 5 ng
Procedure: To visualize the induction of Cox-2 protein in dorsal horns after peripheral inflammation, immunohistochemistry was performed on transverse spinal cord sections (20 μm) using a Cox-2 antibody (Santa Cruz) and a neuronal marker, the NeuN antibody (Chemicon), as described previously (Amay et al., Mol. Cell Neurosci. 15:331-342, 2000). In situ hybridization was performed using a digoxygenin-labeled riboprobe to visualize the induction of Cox-2 mRNA (Mannion et al., Proc. Natl. Acad. Sci. U. S. A. 96:9385, 1999). Low basal levels of Cox-2 mRNA and protein were present in dorsal horn neurons with a substantial upregulation six and 12 hours post-inflammation (FIGS. 2A-2D and 3). To determine whether this induction of Cox-2 was correlated with an increase in PGE2 levels, a 100-200 μl sample of cerebrospinal fluid was withdrawn from the cisterna magna of anaesthetized rats using a 27 G needle, and PGE2 levels were analyzed using a PGE2 enzyme-immunoassay according to the manufacturer's protocol (Amersham Pharmacia Biotech). […]
To determine whether IL-1β induces central Cox-2, rats were subjected to intravenous or intrathecal administration of this cytokine, and Cox-2 mRNA levels in the lumbar spinal cord were assessed five hours later. […]

## IL-1β: cytokine administered intravenously, intrathecally or to cultures
[1]
  phosphorylation of p38 and ERK in DRG cell cultures: lead to phosphorylation of p38 and ERK
[2]
  Cox-2 mRNA and protein levels in cultured DRG neurons: increased significantly
[3]
  Cox-2 mRNA expression in the spinal cord in vitro: increased
[4]; intrathecal 5 ng
  upregulation of Cox-2 mRNA in the spinal cord: 20 fold
[4]; intrathecal 50 ng
  upregulation of Cox-2 mRNA in the spinal cord: 30 fold
[4]; intrathecal 1 and 10 ng, four hours after treatment
  Cox-2 mRNA levels in rat lumbar DRG neurons: substantially upregulated
[4]; intravenous 1 μg
  upregulation of Cox-2 mRNA in the spinal cord: four
[5]
  upregulation of central PGE2 levels: 50 fold
[5]; p<0.005, n=6
  central PGE2 levels: 1204 ± 360 pg/mL
